Patent US20210283261A1, “Compositions and Methods for Treating ALK-Mediated Cancer” (ICAHN SCHOOL OF MEDICINE AT MOUNT SINAI, priority 2017, published 2021)

Legend:
Assay type in all cases: cell-based
[1] = target: T1, ALK fusion protein (Homo sapiens, UniProt Q9UM73); assay: Western blot of ALK fusion protein levels in NCI-H3122 cells; conditions: for Dmax at 0.5 µM: NCI-H3122, NCI-H3122 cells, 500 nM, Western blot, read-out: ALK fusion protein degradation, NCI-H3122 (500 nM); for effect on ALK fusion protein levels, concentration dependence: NCI-H3122 cells, 0, 50, 100, 200, 400 and 800 nM; for effect on ALK fusion protein levels, concentration dependence / significantly reduced ALK fusion protein levels (degraders vs negative controls): 16 h; for significantly reduced ALK fusion protein levels (degraders vs negative controls): NCI-H3122 cells
T1 construct: endogenous in cells; host or cells: NCI-H3122; the other entry of the earlier key: EML4 (Q9HC35, Echinoderm microtubule-associated protein-like 4)
T1 sequence (Q9UM73 with tags, fused parts or gaps): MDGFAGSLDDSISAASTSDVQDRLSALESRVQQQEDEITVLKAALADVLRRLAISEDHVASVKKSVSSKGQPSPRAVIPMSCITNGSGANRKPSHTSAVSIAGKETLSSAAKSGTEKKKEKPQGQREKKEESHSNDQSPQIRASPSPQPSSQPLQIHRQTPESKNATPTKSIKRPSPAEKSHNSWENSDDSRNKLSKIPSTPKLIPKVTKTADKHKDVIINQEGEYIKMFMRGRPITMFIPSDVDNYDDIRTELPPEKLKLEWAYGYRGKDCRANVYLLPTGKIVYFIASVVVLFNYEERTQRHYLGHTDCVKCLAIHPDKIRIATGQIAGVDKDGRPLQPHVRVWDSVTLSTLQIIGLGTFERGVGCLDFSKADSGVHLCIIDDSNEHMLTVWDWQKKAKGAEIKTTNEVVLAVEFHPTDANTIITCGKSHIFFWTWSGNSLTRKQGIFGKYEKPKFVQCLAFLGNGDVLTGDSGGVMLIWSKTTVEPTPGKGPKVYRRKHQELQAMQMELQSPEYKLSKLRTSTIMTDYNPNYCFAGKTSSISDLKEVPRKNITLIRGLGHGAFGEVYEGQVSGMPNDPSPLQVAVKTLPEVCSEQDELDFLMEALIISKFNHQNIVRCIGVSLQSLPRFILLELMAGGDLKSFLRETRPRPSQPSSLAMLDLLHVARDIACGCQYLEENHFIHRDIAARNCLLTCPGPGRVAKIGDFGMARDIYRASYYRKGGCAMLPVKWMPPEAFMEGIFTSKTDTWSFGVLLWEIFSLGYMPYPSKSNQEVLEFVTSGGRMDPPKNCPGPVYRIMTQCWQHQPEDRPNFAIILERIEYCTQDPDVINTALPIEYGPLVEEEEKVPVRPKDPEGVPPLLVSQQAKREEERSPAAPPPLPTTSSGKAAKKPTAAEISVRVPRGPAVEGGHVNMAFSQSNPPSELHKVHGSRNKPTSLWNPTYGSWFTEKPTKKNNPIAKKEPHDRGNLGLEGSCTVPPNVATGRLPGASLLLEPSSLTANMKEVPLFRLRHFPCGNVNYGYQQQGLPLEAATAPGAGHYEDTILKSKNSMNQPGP

[2] = tested on: ALK; assay: Characterization of ALK degraders in ALCL and NSCLC cells (summary); conditions: summary statement
Source text: Specific exemplary ALK degraders/disruptors were characterized in various different anaplastic large cell lymphoma (ALCL) cells and non-small cell lung cancer (NSCLC) cells (Examples 4-19, FIGS. 1-18). […] This efficacy in suppressing ALK expression and ALK activity correlated with efficacy in inhibiting cancer cell proliferation.

[3] = tested on: NCI-H3122 cells; assay: Cell viability assay in NCI-H3122 cells; conditions: 3 days
Experimental: SU-DHL-1, NCI-H3122 and NCI-H2228 cells were cultured in RPMI-1640 medium supplemented with 10% fetal bovine serum, 50 μg/mL penicillin and streptomycin. Cells were cultured in a 37° C. incubator with 5% CO2.
(§1) SU-DHL-1 and NCI-3122 cells were treated with DMSO or indicated serial dilutions of compounds for 3 days. Data were analyzed using the GraphPad Prism.

[4] = tested on: SU-DHL-1 cells; assay: Cell viability assay in SU-DHL-1 cells; conditions: for inhibition of cell viability: 3 days
Experimental: (§2) SU-DHL-1 cells were seeded in 96-well plates at a density of 1×10^4 cells per well, in triplicate. Treated cells with DMSO or indicated serial dilutions of compounds for 2.5 days. Cell growth/survival was measured by using the CellTiter-Glo luminescent cell viability assay following the manufacturer's instructions (Promega) or CCK8 cell viability assay (Sigma). Data was analyzed by using the GraphPad Prism software, Error bars represent ±SD for triplicate experiments.
as §2, with “assay.” for “assay following the manufacturer's instructions (Promega) or CCK8 cell viability assay (Sigma).”, “experiments (left panel).” for “experiments.”
SU-DHL-1 cells were seeded in 96-well plates at a density of 5000 cells per well, in triplicate. The cells were treated with DMSO or indicated serial dilutions of compounds for 3 days. Cell growth was measured using the CellTiter-Glo luminescent cell viability assay. Data were analyzed using the GraphPad Prism.
as §1

[5] = target: T2, NPM-ALK fusion protein (Homo sapiens, UniProt Q9UM73); assay: Western blot of NPM-ALK fusion protein levels in SU-DHL-1 cells; conditions: for effect on ALK fusion protein levels, concentration dependence: SU-DHL-1 cells, 0, 10, 20, 40, 80 and 160 nM; for effect on ALK fusion protein levels, concentration dependence / significantly reduced ALK fusion protein levels (degraders vs negative controls) / effect on NPM-ALK fusion protein levels, concentration dependence: 16 h; for effect on NPM-ALK fusion protein levels, concentration dependence: SU-DHL-1 cells, 1, 3, 10, 30 or 100 nM
T2 construct: endogenous in cells; host or cells: SU-DHL-1; the other entry of the earlier key: NPM1 (P06748, Nucleophosmin)
T2 sequence (Q9UM73 with tags, fused parts or gaps): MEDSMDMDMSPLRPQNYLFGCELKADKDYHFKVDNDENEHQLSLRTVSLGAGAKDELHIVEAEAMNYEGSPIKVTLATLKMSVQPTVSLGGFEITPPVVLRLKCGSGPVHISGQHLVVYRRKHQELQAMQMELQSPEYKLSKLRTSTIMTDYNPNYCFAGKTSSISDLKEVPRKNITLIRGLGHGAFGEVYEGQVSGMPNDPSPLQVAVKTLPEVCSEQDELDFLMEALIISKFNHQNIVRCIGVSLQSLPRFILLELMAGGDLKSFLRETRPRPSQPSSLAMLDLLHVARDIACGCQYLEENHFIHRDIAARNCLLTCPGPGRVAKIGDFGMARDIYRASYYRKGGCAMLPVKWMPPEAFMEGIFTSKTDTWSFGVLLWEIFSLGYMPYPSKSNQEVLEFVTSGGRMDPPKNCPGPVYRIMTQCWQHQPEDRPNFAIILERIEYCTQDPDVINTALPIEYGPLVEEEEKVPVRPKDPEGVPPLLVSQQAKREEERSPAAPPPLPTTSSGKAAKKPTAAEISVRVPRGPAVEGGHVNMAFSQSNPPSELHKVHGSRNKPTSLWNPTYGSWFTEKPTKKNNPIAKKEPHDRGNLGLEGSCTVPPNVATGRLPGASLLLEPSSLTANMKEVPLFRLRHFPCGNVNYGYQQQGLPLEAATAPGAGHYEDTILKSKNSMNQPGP
Experimental: (§3) Cells were cultured in a 37° C. incubator with 5% CO2.
(§4) Cells were washed with cold PBS once and lysed in 1× Laemmli loading buffer directly. […] Membrane was blocked in 5% milk in Tris-buffered saline and Tween 20 (TBST) for 1 h at room temperature, followed by incubation with a primary antibody overnight at 4° C., and a horseradish peroxidase (HRP)-conjugated secondary antibody for 1 h at room temperature. The membrane was imaged by a ChemiDoc MP imaging system (BIO-RAD). Antibodies against GAPDH (abeam), Phospho-ALK (Tyr1507), ALK (Cell Signaling Technology), Tubulin (Santa Cruz) were purchased commercially.
SU-DHL-1 suspension cells were seeded in 12-well plates at a density of 6×10^5/mL and treated with DMSO or indicated compounds at 30 nM or 100 nM for indicated time.
SU-DHL-1 cells were seeded in 12-well plates at a density of 4×10^5/mL and treated with DMSO or indicated serial dilutions of compounds for 16 h. The NPM-ALK fusion protein levels were determined by Western blot and normalized against GPADH (right panel).

[6] = target: T3, EML4-ALK v3 fusion protein (Homo sapiens, UniProt Q9UM73); assay: Western blot of EML4-ALK v3 fusion protein levels in NCI-H2228 cells; conditions: 16 h; for effect on EML4-ALK fusion protein levels, concentration dependence: NCI-H2228 cells, 1, 3, 10, 30 or 100 nM
T3 construct: endogenous in cells; host or cells: NCI-H2228
T3 sequence (Q9UM73 1058-1620 limits assumed): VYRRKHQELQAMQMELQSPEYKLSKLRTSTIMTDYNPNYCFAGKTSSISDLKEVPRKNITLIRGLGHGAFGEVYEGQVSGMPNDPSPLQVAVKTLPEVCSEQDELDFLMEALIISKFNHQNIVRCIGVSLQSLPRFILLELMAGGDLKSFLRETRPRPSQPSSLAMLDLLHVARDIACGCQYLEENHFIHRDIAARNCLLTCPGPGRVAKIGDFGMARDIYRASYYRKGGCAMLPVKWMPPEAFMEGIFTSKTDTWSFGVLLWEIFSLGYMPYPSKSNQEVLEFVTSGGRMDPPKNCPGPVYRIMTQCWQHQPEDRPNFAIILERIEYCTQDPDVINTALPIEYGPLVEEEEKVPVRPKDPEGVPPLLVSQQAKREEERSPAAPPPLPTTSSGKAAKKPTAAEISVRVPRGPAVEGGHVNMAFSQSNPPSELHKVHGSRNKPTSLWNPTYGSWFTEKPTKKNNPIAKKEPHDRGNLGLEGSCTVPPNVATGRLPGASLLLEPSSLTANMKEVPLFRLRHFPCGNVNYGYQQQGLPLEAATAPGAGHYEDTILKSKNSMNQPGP
Experimental: as §3, §4
Cells were 70% confluent and treated with DMSO or indicated serial dilutions of compounds for 16 h. The EML4-ALK fusion protein levels were determined by Western blot and normalized against GPADH (right panel).

SMILES | Dmax at 0.5 µM [1] [%] | effect on ALK fusion protein levels, concentration dependence [1] | suppressing both ALK expression and ALK activity [2] | inhibition of cell viability [3] | inhibition of cell viability [4] | effect on ALK fusion protein levels, concentration dependence [5] | effect on EML4-ALK fusion protein levels, concentration dependence [6] | effect on NPM-ALK fusion protein levels, concentration dependence [5] | further results
Cc1cc(Nc2ncc(Cl)c(Nc3ccccc3S(=O)(=O)C(C)C)n2)c(OC(C)C)cc1C1CCN(C(=O)COCCOCC(=O)N[C@H](C(=O)N2C[C@H](O)C[C@H]2C(=O)N[C@@H](C)c2ccc(-c3scnc3C)cc2)C(C)(C)C)CC1 [HC58-98, (2S,4R)-1-((S)-2-(2-(2-(2-(4-(4-((5-Chloro-4-((2-(isopropylsulfonyl)phenyl)amino)pyrimidin-2-yl)amino)-5-isopropoxy-2-methylphenyl)piperidin-1-yl)-2-oxoethoxy)ethoxy)acetamido)-3,3-dimethylbutanoyl)-4-hydroxy-N—((S)-1-(4-(4-methylthiazol-5-yl)phenyl)ethyl)pyrrolidine-2-carboxamide] | > 80 | concentration-dependently reduced | especially effective | significantly inhibited | significantly inhibited | concentration-dependently reduced |  |  | 
Cc1cc(Nc2ncc(Cl)c(Nc3ccccc3S(=O)(=O)C(C)C)n2)c(OC(C)C)cc1C1CCN(C(=O)CCCC(=O)N[C@H](C(=O)N2C[C@H](O)C[C@H]2C(=O)NCc2ccc(-c3scnc3C)cc2)C(C)(C)C)CC1 [CZ47-23, (2S,4R)-1-((S)-2-(5-(4-(4-((5-Chloro-4-((2-(isopropylsulfonyl)phenyl)amino)pyrimidin-2-yl)amino)-5-isopropoxy-2-methylphenyl)piperidin-1-yl)-5-oxopentanamido)-3,3-dimethylbutanoyl)-4-hydroxy-N-(4-(4-methylthiazol-5-yl)benzyl)pyrrolidine-2-carboxamide] | > 80 | concentration-dependently reduced | especially effective | significantly inhibited | significantly inhibited | concentration-dependently reduced |  |  | significantly reduced ALK fusion protein levels (degraders vs negative controls) [1]: significantly reduced; rescue of induced ALK fusion protein degradation by MG-132 and MLN4924 ([5]; SU-DHL-1 cells, 2 h pre-treatment, then 100 nM compound for 6 h): significantly rescued; significantly reduced ALK fusion protein levels (degraders vs negative controls) ([5]; SU-DHL-1 cells): significantly reduced
Cc1cc(Nc2ncc(Cl)c(Nc3ccccc3S(=O)(=O)C(C)C)n2)c(OC(C)C)cc1C1CCN(CC(=O)NCCOCCOCCOCCOCCNc2cccc3c2C(=O)N(C2CCC(=O)NC2=O)C3=O)CC1 (stereo not shown) [CZ40-53, 2-(4-(4-((5-Chloro-4-((2-(isopropylsulfonyl)phenyl)amino)pyrimidin-2-yl)amino)-5-isopropoxy-2-methylphenyl)piperidin-1-yl)-N-(14-((2-(2,6-dioxopiperidin-3-yl)-1,3-dioxoisoindolin-4-yl)amino)-3,6,9,12-tetraoxatetradecyl)acetamide] |  |  | especially effective |  |  |  |  |  | GI50 ([4]; Homo sapiens, 60 h, 2.5 days, CellTiter-Glo, read-out: GI50 (drug concentration that results in 50% growth inhibition)): < 40 nM; Dmax at 0.03 µM ([5]; SU-DHL-1 cells, 30 nM, Western blot, read-out: ALK fusion protein degradation, SU-DHL-1 (30 nM)): > 80%
Cc1cc(Nc2ncc(Cl)c(Nc3ccccc3S(=O)(=O)C(C)C)n2)c(OC(C)C)cc1C1CCN(C(=O)CCCC(=O)N[C@H](C(=O)N2C[C@H](O)C[C@H]2C(=O)N[C@@H](C)c2ccc(-c3scnc3C)cc2)C(C)(C)C)CC1 [HC58-99, (2S,4R)-1-((S)-2-(5-(4-(4-((5-Chloro-4-((2-(isopropylsulfonyl)phenyl)amino)pyrimidin-2-yl)amino)-5-isopropoxy-2-methylphenyl)piperidin-1-yl)-5-oxopentanamido)-3,3-dimethylbutanoyl)-4-hydroxy-N—((S)-1-(4-(4-methylthiazol-5-yl)phenyl)ethyl)pyrrolidine-2-carboxamide] | > 80 | concentration-dependently reduced | especially effective | significantly inhibited | significantly inhibited | concentration-dependently reduced |  |  | 
Cc1cc(Nc2ncc(Cl)c(Nc3ccccc3S(=O)(=O)C(C)C)n2)c(OC(C)C)cc1C1CCN(CC(=O)NCCOCCOCCOCCOCCOCCNc2cccc3c2C(=O)N(C2CCC(=O)N(C)C2=O)C3=O)CC1 (stereo not drawn) [CZ47-48, 2-(4-(4-((5-Chloro-4-((2-(isopropylsulfonyl)phenyl)amino)pyrimidin-2-yl)amino)-5-isopropoxy-2-methylphenyl)piperidin-1-yl)-N-(17-((2-(l-methyl-2,6-dioxopiperidin-3-yl)-1,3-dioxoisoindolin-4-yl)amino)-3,6,9,12,15-pentaoxaheptadecyl)acetamide] | < 20 |  |  |  |  |  | no significant effect | no significant effect | 
Cc1cc(Nc2ncc(Cl)c(Nc3ccccc3S(=O)(=O)C(C)C)n2)c(OC(C)C)cc1C1CCN(CC(=O)NCCNc2cccc3c2C(=O)N(C2CCC(=O)N(C)C2=O)C3=O)CC1 (stereo not drawn) [CZ47-40, 2-(4-(4-((5-Chloro-4-((2-(isopropylsulfonyl)phenyl)amino)pyrimidin-2-yl)amino)-5-isopropoxy-2-methylphenyl)piperidin-1-yl)-N-(2-((2-(l-methyl-2,6-dioxopiperidin-3-yl)-1,3-dioxoisoindolin-4-yl)amino)ethyl)acetamide] | < 20 |  |  |  |  |  | no significant effect | no significant effect | 
Cc1cc(Nc2ncc(Cl)c(Nc3ccccc3S(=O)(=O)C(C)C)n2)c(OC(C)C)cc1C1CCNCC1 [ceritinib, reference compound] |  |  |  |  |  |  | no significant effect | no significant effect | effect on ALK protein levels ([6]; NCI-H2228 cells, 100 nM): no distinct effect; effect on NPM-ALK fusion protein levels ([5]; SU-DHL-1 cells, 30 nM or 100 nM): no effect
Cc1cc(Nc2ncc(Cl)c(Nc3ccccc3S(=O)(=O)C(C)C)n2)c(OC(C)C)cc1C1CCN(C(=O)CCCCC(=O)N[C@H](C(=O)N2C[C@@H](O)C[C@H]2C(=O)NCc2ccc(-c3scnc3C)cc2)C(C)(C)C)CC1 [HC58-112, (2S,4S)-1-((S)-2-(6-(4-(4-((5-chloro-4-((2-(isopropylsulfonyl)phenyl)amino)pyrimidin-2-yl)amino)-5-isopropoxy-2-methylphenyl)piperidin-1-yl)-6-oxohexanamido)-3,3-dimethylbutanoyl)-4-hydroxy-N-(4-(4-methylthiazol-5-yl)benzyl)pyrrolidine-2-carboxamide] | < 20 |  |  |  |  |  |  |  | significantly reduced ALK fusion protein levels (degraders vs negative controls) [1]: not; significantly reduced ALK fusion protein levels (degraders vs negative controls) ([5]; SU-DHL-1 cells): not
